Laboratory results reported in paper PMC12602695 (Nature Communications, 2025).

System: AcTPS2
Assay: product formation, ethyl acetate extraction, Michaelis-Menten fit
Assay type: biochemical, Astilbe chinensis
Settings: 50 mM Tris-HCl pH 7.5, 1 mM MgCl2, 2 mM DTT, 12.5% glycerol, 0.1% Tween 20, 30 °C, 1 h

CC(C)=CCC/C(C)=C/CC/C(C)=C/COP(=O)(O)OP(=O)(O)O [FPP, farnesyl diphosphate]
Km: 23.8 µM
